pIC50: −log10 of the molar value.

The target of one assay is T1, HDM2 (Homo sapiens, UniProt Q00987).
T1 construct: Thioredoxin (N); made in house; host or cells: E. coli strain BL21(DE3)Rosetta
T1 sequence (Q00987 17-125): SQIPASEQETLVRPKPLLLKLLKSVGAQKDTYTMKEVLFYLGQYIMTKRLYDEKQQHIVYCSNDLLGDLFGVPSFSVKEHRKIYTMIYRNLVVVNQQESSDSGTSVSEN
Put plainly: FRET assay (HDM2 inhibition; method not described in this part). Type of assay: binding. The conditions noted are these: Table 1.
`Cc1ccc(Cl)c(-c2nc3nc(C(=O)O)nc(N[C@H](C)C4CCC4)c3n2Cc2ccc(C(F)(F)F)cc2)c1` [Example 1.120, 8-(2-chloro-5-methylphenyl)-6-{[(1R)-1-cyclobutylethyl]amino}-7-[4-(trifluoromethyl)benzyl] - 7H-purine-2-carboxylic acid] showed a pIC50 of 7.98. Same read-out and setting: for `C[C@@H](Nc1nc(C(=O)O)nc2nc(-c3ccc4c(c3)CCO4)n(Cc3ccc(C(F)(F)F)cc3)c12)C1CCC1` [Example 1.121, 6-{[(1R)-1-cyclobutylethyl]amino}-8-(2,3-dihydro-1-benzofuran-5-yl)-7-[4-(trifluoromethyl)benzyl]-7H-purine-2-carboxylic acid] the value was 8.11. On the same count and under the same terms, for `C[C@@H](Nc1nc(C(=O)O)nc2nc(-c3cccc(C(F)(F)F)n3)n(Cc3ccc(C(F)(F)F)cc3)c12)C1CCC1` [Example 1.122, 6-{[(1R)-1-cyclobutylethyl]amino}-7-[4-(trifluoromethyl)benzyl]-8-[6-(trifluoromethyl)pyridin-2-yl]-7H-purine-2-carboxylic acid] the value was 7.67; for `COc1cc(C)cc(-c2nc3nc(C(=O)O)nc(N[C@H](C)C4CCC4)c3n2Cc2ccc(C(F)(F)F)cc2)c1` [Example 1.123, 6-{[(1R)-1-cyclobutylethyl]amino}-8-(3-methoxy-5-methylphenyl)-7-[4-(trifluoromethyl)benzyl]-7H-purine-2-carboxylic acid], 7.27. For `COc1cc(-c2nc3nc(C(=O)O)nc(N[C@H](C)C4CCC4)c3n2Cc2ccc(C(F)(F)F)cc2)ccc1Cl` [Example 1.124, 8-(4-chloro-3-methoxyphenyl)-6-{[(1R)-1-cyclobutylethyl]amino}-7-[4-(trifluoromethyl)benzyl]-7H-purine-2-carboxylic acid], the negative logarithm of the IC50 (pIC50) is 7.58.

In the case of `C[C@@H](Nc1nc(C(=O)O)nc2nc(-c3ccc4c(c3)OCCN4C)n(Cc3ccc(C(F)(F)F)cc3)c12)C1CCC1` [Example 1.125, 6-{[(1R)-1-cyclobutylethyl]amino}-8-(4-methyl-3,4-dihydro-2H-1,4-benzoxazin-7-yl)-7-[4-(trifluoromethyl)benzyl]-7H-purine-2-carboxylic acid], the negative-log IC50 (pIC50) was 6.93.

Regarding `Cc1cccc(-c2nc3nc(C(=O)O)nc(N[C@H](C)C4CCC4)c3n2Cc2ccc(C(F)(F)F)cc2)c1C` [Example 1.126, 6-{[(1R)-1-cyclobutylethyl]amino}-8-(2,3-dimethylphenyl)-7-[4-(trifluoromethyl)benzyl]-7H-purine-2-carboxylic acid], the negative logarithm of the IC50 (pIC50) is 7.75. Against the preceding molecule, the pIC50 is 0.82 log units higher. With `CC(C)Oc1cccc(-c2nc3nc(C(=O)O)nc(N[C@H](C)C4CCC4)c3n2Cc2ccc(C(F)(F)F)cc2)c1` [Example 1.127, 6-{[(1R)-1-cyclobutylethyl]amino}-8-[3-(1-methylethoxy)phenyl]-7-[4-(trifluoromethyl)benzyl]-7H-purine-2-carboxylic acid], the pIC50 is 7.41. Same read-out and setting: as for `C[C@@H](Nc1nc(C(=O)O)nc2nc(-c3cc(C(C)(C)C)cc(C(C)(C)C)c3)n(Cc3ccc(C(F)(F)F)cc3)c12)C1CCC1` [Example 1.128, 6-{[(1R)-1-cyclobutylethyl]amino}-8-(3,5-di-tert-butylphenyl)-7-[4-(trifluoromethyl)benzyl]-7H-purine-2-carboxylic acid], the figure is 6.65; as for `Cc1cc(OC(F)(F)F)ccc1-c1nc2nc(C(=O)O)nc(N[C@H](C)C3CCC3)c2n1Cc1ccc(C(F)(F)F)cc1` [Example 1.129, 6-{[(1R)-1-cyclobutylethyl]amino}-8-[2-methyl-4-(trifluoromethoxy)phenyl]-7-[4-(trifluoromethyl)benzyl]-7H-purine-2-carboxylic acid], 7.34; as for `C[C@@H](Nc1nc(C(=O)O)nc2nc(-c3cccc(Nc4ccccc4)c3)n(Cc3ccc(C(F)(F)F)cc3)c12)C1CCC1` [Example 1.130, 6-{[(1R)-1-cyclobutylethyl]amino}-8-[3-(phenylamino)phenyl]-7-[4-(trifluoromethyl)benzyl]-7H-purine-2-carboxylic acid], 7.12. Same read-out and setting: as for `Cc1cc(C)cc(-c2nc3nc(C(=O)O)nc(N[C@H](C)C4CCC4)c3n2Cc2ccc(C(F)(F)F)cc2)c1` [Example 1.131, 6-{[(1R)-1-cyclobutylethyl]amino}-8-(3,5-dimethylphenyl)-7-[4-(trifluoromethyl)benzyl]-7H-purine-2-carboxylic acid], the figure is 6.43; as for `Cc1ccc(Cl)cc1-c1nc2nc(C(=O)O)nc(N[C@H](C)C3CCC3)c2n1Cc1ccc(C(F)(F)F)cc1` [Example 1.132, 8-(5-chloro-2-methylphenyl)-6-{[(1R)-1-cyclobutylethyl]amino}-7-[4-(trifluoromethyl)benzyl]-7H-purine-2-carboxylic acid], 6.28; as for `COc1ccc2cc(-c3nc4nc(C(=O)O)nc(N[C@H](C)C5CCC5)c4n3Cc3ccc(C(F)(F)F)cc3)ccc2c1` [Example 1.133, 6-{[(1R)-1-cyclobutylethyl]amino}-8-(6-methoxynaphthalen-2-yl)-7-[4-(trifluoromethyl)benzyl]-7H-purine-2-carboxylic acid], 7.13. Same read-out and setting: for `COc1c(C)cc(-c2nc3nc(C(=O)O)nc(N[C@H](C)C4CCC4)c3n2Cc2ccc(C(F)(F)F)cc2)cc1C` [Example 1.134, 6-{[(1R)-1-cyclobutylethyl]amino}-8-(4-methoxy-3,5-dimethylphenyl)-7-[4-(trifluoromethyl)benzyl]-7H-purine-2-carboxylic acid] the value was 7.25; for `C[C@@H](Nc1nc(C(=O)O)nc2nc(-c3ncccc3C(F)(F)F)n(Cc3ccc(C(F)(F)F)cc3)c12)C1CCC1` [Example 1.135, 6-{[(1R)-1-cyclobutylethyl]amino}-7-[4-(trifluoromethyl)benzyl]-8-[3-(trifluoromethyl)pyridin-2-yl]-7H-purine-2-carboxylic acid], 7.32; for `COc1ccc(-c2nc3nc(C(=O)O)nc(N[C@H](C)C4CCC4)c3n2Cc2ccc(C(F)(F)F)cc2)c(F)c1` [Example 1.136, 6-{[(1R)-1-cyclobutylethyl]amino}-8-(2-fluoro-4-methoxyphenyl)-7-[4-(trifluoromethyl)benzyl]-7H-purine-2-carboxylic acid], 6.90. Molecule `Cc1cc(-c2nc3nc(C(=O)O)nc(N[C@H](C)C4CCC4)c3n2Cc2ccc(C(F)(F)F)cc2)ccc1F` [Example 1.137, 6-{[(1R)-1-cyclobutylethyl]amino}-8-(4-fluoro-3-methylphenyl)-7-[4-(trifluoromethyl)benzyl]-7H-purine-2-carboxylic acid] had a negative-log IC50 (pIC50) of 7.30.

Consider `CCOc1ccc(C)cc1-c1nc2nc(C(=O)O)nc(N[C@H](C)C3CCC3)c2n1Cc1ccc(C(F)(F)F)cc1` [Example 1.138, 6-{[(1R)-1-cyclobutylethyl]amino}-8-(2-ethoxy-5-methylphenyl)-7-[4-(trifluoromethyl)benzyl]-7H-purine-2-carboxylic acid], for which the pIC50 is 7.80.

Still in this assay, the particulars now being: Table 2.
The molecule `COc1cccc(-c2nc3nc(C(=O)O)nc(N[C@H](C)C4CCC4)c3n2Cc2ccc(C(F)(F)F)cc2)c1` [Example 2.1, (R)-6-((1-cyclobutylethyl)amino)-8-(3-methoxyphenyl)-7-(4-(trifluoromethyl)benzyl)-7H-purine-2-carboxylic acid] had a pIC50 of 7.43.

The molecule `Cc1cc(C2CC2)ccc1-c1nc2nc(C(=O)O)nc(N[C@H](C)C3CCC3)c2n1Cc1ccc(C(F)(F)F)cc1` [Example 2.2, (R)-6-((1-cyclobutylethyl)amino)-8-(4-cyclopropyl-2-methylphenyl)-7-(4-(trifluoromethyl)benzyl)-7H-purine-2-carboxylic acid] showed a pIC50 of 6.82. This pIC50 is 0.61 log units lower than that of the molecule before. In turn, `C[C@@H](Nc1nc(C(=O)O)nc2nc(Cc3ccccc3)n(Cc3ccc(C(F)(F)F)cc3)c12)C1CCC1` [Example 2.3, (R)-8-benzyl-6-((1-cyclobutylethyl)amino)-7-(4-(trifluoromethyl)benzyl)-7H-purine-2-carboxylic acid] gave a negative-log IC50 (pIC50) of 8.44. `C[C@@H](Nc1nc(C(=O)O)nc2nc(C3CCCCC3)n(Cc3ccc(C(F)(F)F)cc3)c12)C1CCC1` [Example 2.4, (R)-6-((1-cyclobutylethyl)amino)-8-cyclohexyl-7-(4-(trifluoromethyl)benzyl)-7H-purine-2-carboxylic acid] showed a negative logarithm of the IC50 (pIC50) of 7.94. Turning to `C[C@@H](Nc1nc(C(=O)O)nc2nc(-c3cccc(Cl)c3)n(Cc3ccc(Cl)cc3)c12)C1CC1` [Example 2.5, 7-(4-chlorobenzyl)-8-(3-chlorophenyl)-6-{[(1R)-1-cyclopropylethyl]amino}-7H-purine-2-carboxylic acid], the pIC50 is 6.66. Against the preceding molecule, the pIC50 is 1.28 log units lower. On the same count and under the same terms, for `Cc1cccc(-c2nc3nc(C(=O)O)nc(N[C@H](C)C4CC4)c3n2Cc2ccc(Cl)cc2)c1` [Example 2.6, 7-(4-chlorobenzyl)-6-{[(1R)-1-cyclopropylethyl]amino}-8-(3-methylphenyl)-7H-purine-2-carboxylic acid] the value was 6.68. On the same count and under the same terms, for `C[C@@H](Nc1nc(C(=O)O)nc2nc(-c3ccc4sccc4c3)n(Cc3ccc(Cl)cc3)c12)C1CC1` [Example 2.7, 8-(1-benzothiophen-5-yl)-7-(4-chlorobenzyl)-6-{[(1R)-1-cyclopropylethyl]amino}-7H-purine-2-carboxylic acid] the value was 6.59; for `Cc1cccc(-c2nc3nc(C(=O)O)nc(N[C@H](C)C4CC4)c3n2Cc2ccc(C(F)(F)F)cc2)c1` [Example 2.8, 6-{[(1R)-1-cyclopropylethyl]amino}-8-(3-methylphenyl)-7-[4-(trifluoromethyl)benzyl]-7H-purine-2-carboxylic acid], 7.55; for `C[C@@H](Nc1nc(C(=O)O)nc2nc(-c3ccc(Cl)cc3)n(Cc3ccc(Cl)cc3)c12)C1CC1` [Example 2.9, 7-(4-chlorobenzyl)-8-(4-chlorophenyl)-6-{[(1R)-1-cyclopropylethyl]amino}-7H-purine-2-carboxylic acid], 7.36. Same read-out and setting: for `C[C@@H](Nc1nc(C(=O)O)nc2nc(-c3ccc4sccc4c3)n(Cc3ccc(Cl)cc3)c12)C1CCC1` [Example 2.10, 8-(1-benzothiophen-5-yl)-7-(4-chlorobenzyl)-6-{[(1R)-1-cyclobutylethyl]amino}-7H-purine-2-carboxylic acid] the value was 8.14.

As a reminder, the pIC50 is the negative decadic logarithm of the IC50, by convention in mol/L. A low value points to a high IC50.

Values taken from EP2951180B1, “2,6,7,8 SUBSTITUTED PURINES AS HDM2 INHIBITORS” (Merck Sharp & Dohme Corp., priority 2013, dated 2014).
